In paper PMC10767055, “Different binding modalities of quercetin to inositol-requiring enzyme 1 of S. cerevisiae and human lead to opposite regulation” (Communications Chemistry, 2024):

Tests used:
[1] = target: T1, human IRE1 (hIRE1, IRE1α) (Homo sapiens, UniProt O75460); experiment: MST displacement of fluorescent Kinase Tracer […] (positive control); type: binding
T1 construct: gene ERN1; aa 465-977, His & GST Tag

[2] = target: T1, human IRE1 (hIRE1, IRE1α); experiment: in vitro RNase cleavage assay, recombinant IRE1, fluorescence-quenched mini XBP1 RNA probe; type: biochemical

T1 sequence (O75460 465-977): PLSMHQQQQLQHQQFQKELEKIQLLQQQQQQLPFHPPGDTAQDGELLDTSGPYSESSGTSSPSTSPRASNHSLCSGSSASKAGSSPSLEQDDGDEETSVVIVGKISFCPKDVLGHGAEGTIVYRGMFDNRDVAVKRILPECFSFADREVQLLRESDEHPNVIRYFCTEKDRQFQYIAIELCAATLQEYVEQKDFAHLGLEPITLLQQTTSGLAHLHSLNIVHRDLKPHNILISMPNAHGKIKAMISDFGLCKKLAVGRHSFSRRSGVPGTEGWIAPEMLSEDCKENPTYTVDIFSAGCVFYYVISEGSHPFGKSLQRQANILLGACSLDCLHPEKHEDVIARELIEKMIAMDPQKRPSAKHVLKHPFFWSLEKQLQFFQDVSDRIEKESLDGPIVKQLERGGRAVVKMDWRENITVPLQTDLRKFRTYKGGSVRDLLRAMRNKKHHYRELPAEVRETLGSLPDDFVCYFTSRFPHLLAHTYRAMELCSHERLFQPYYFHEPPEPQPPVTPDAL

Structure (SMILES): Cc1ccc2c(NS(=O)(=O)c3ccccc3Cl)cccc2c1Oc1ncccc1-c1ccnc(N[C@H]2CCCNC2)n1 [KIRA8]
- IC50 [1]: 73 ± 5 nM

Structure (SMILES): O=c1c(O)c(-c2ccc(O)c(O)c2)oc2cc(O)cc(O)c12 [Qe, Quercetin]
- IC50 [2]: 272 ± 150 nM

Structure (SMILES): C[C@@H]1O[C@@H](Oc2c(-c3ccc(O)c(O)c3)oc3cc(O)cc(O)c3c2=O)[C@H](O)[C@H](O)[C@H]1O [Qi, Quercitrin]
- IC50 [2]: 226 ± 70 nM
